{"source": "paper PMC7846450", "about": "(Science (New York, N.Y.), 2020)", "target": "T1, Glk1 (Saccharomyces cerevisiae, UniProt P17709, F3S)", "T1 sequence (P17709 1-500 F3S)": "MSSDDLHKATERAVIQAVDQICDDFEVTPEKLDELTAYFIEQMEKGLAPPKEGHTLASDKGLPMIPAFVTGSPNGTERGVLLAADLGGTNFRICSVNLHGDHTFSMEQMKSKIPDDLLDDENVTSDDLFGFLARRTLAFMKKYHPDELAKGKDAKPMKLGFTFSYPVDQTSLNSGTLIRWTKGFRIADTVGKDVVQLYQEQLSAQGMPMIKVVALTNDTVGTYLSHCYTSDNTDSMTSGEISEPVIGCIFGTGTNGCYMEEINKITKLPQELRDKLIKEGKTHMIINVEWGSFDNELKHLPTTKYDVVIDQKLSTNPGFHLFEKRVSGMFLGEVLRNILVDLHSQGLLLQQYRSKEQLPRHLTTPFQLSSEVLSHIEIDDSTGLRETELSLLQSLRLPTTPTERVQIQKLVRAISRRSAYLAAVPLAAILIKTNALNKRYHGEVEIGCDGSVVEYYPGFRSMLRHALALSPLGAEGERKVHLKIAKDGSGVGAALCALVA", "test": "enzyme activity versus Glk1 concentration", "assay_type": "biochemical", "details": "non-polymerizing mutant", "data": [{"molecule": "OC[C@H]1OC(O)[C@H](O)[C@@H](O)[C@@H]1O", "note": "(stereo partly shown) [glucose]", "values": [{"measurement": "enzyme activity versus Glk1 concentration", "result": "NonPol-Glk1 was enzymatically active but lacked the concentration-dependent inhibition of wild-type Glk1"}]}]}
